Test results reported in PubChem BioAssay (NCI).
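48-hour exposure; five concentrations; linearly interpolated endpoints. GI50 is the concentration that inhibits growth by half. TGI: total growth inhibition.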

What was measured:
Test in all cases: NCI-60 cell line screen, 48 h
786-0 renal = test system: 786-0 renal
A498 renal = test system: A498 renal
A549 NSCLC = test system: A549 NSCLC
ACHN renal = test system: ACHN renal
BT-549 breast = test system: BT-549 breast
CAKI-1 renal = test system: CAKI-1 renal
CCRF-CEM leukemia = test system: CCRF-CEM leukemia
COLO 205 colon = test system: COLO 205 colon
DU-145 prostate = test system: DU-145 prostate
EKVX NSCLC = test system: EKVX NSCLC
HCC-2998 colon = test system: HCC-2998 colon
HCT-116 colon = test system: HCT-116 colon
HCT-15 colon = test system: HCT-15 colon
HL-60(TB) leukemia = test system: HL-60(TB) leukemia
HOP-62 NSCLC = test system: HOP-62 NSCLC
HOP-92 NSCLC = test system: HOP-92 NSCLC
HS 578T breast = test system: HS 578T breast
HT29 colon = test system: HT29 colon
IGROV1 ovarian = test system: IGROV1 ovarian
K-562 leukemia = test system: K-562 leukemia
KM12 colon = test system: KM12 colon
LOX IMVI melanoma = test system: LOX IMVI melanoma
M14 melanoma = test system: M14 melanoma
MALME-3M melanoma = test system: MALME-3M melanoma
MCF7 breast = test system: MCF7 breast
MDA-MB-231 breast = test system: MDA-MB-231 breast
MDA-MB-435 = test system: MDA-MB-435
MOLT-4 leukemia = test system: MOLT-4 leukemia
NCI-H226 lung = test system: NCI-H226 lung

In the case of `CCCSC1=NC2C(N(CC)C(=O)N2CC)N1/N=C/C=C/c1ccccc1[N+](=O)[O-]` (configuration not stated), the GI50 (786-0 renal) is reported as 4.61 µM, the TGI (786-0 renal) is reported as > 100 µM and the GI50 (A498 renal) is reported as 1.59 µM. The TGI (A498 renal) was 6.35 µM, the GI50 (A549 NSCLC) was 4.25 µM and the TGI (A549 NSCLC) was > 100 µM. For the same molecule, the GI50 (ACHN renal) was 3.98 µM, the TGI (ACHN renal) was > 100 µM and the GI50 (BT-549 breast) was 2.6 µM. For the same molecule, the TGI (BT-549 breast) was 8.5 µM, the GI50 (CAKI-1 renal) was 2.93 µM and the TGI (CAKI-1 renal) was > 100 µM. The GI50 (CCRF-CEM leukemia) was 2.93 µM, the TGI (CCRF-CEM leukemia) was > 100 µM and the GI50 (COLO 205 colon) was 3.13 µM. The TGI (COLO 205 colon) was 56.5 µM, the GI50 (DU-145 prostate) was 3.51 µM and the TGI (DU-145 prostate) was > 100 µM. The GI50 (EKVX NSCLC) was 3.89 µM, the TGI (EKVX NSCLC) was > 100 µM and the GI50 (HCC-2998 colon) was 2.57 µM. For the same molecule, the TGI (HCC-2998 colon) was 9.27 µM, the GI50 (HCT-116 colon) was 3.2 µM and the TGI (HCT-116 colon) was > 100 µM. For the same molecule, the GI50 (HCT-15 colon) was 2.94 µM, the TGI (HCT-15 colon) was > 100 µM and the GI50 (HL-60(TB) leukemia) was 3.27 µM. The TGI (HL-60(TB) leukemia) was 12.1 µM, the GI50 (HOP-62 NSCLC) was 3.79 µM and the TGI (HOP-62 NSCLC) was > 100 µM. The GI50 (HOP-92 NSCLC) was 1.27 µM, the TGI (HOP-92 NSCLC) was 8.47 µM and the GI50 (HS 578T breast) was 2.39 µM. For the same molecule, the TGI (HS 578T breast) was > 100 µM, the GI50 (HT29 colon) was 3.16 µM and the TGI (HT29 colon) was > 100 µM. For the same molecule, the GI50 (IGROV1 ovarian) was 4.06 µM, the TGI (IGROV1 ovarian) was > 100 µM and the GI50 (K-562 leukemia) was 2.31 µM. For the same molecule, the TGI (K-562 leukemia) was > 100 µM, the GI50 (KM12 colon) was 3.55 µM and the TGI (KM12 colon) was > 100 µM. It also gave a GI50 (LOX IMVI melanoma) of 3.08 µM, a TGI (LOX IMVI melanoma) of 20.7 µM and a GI50 (M14 melanoma) of 2.83 µM. The TGI (M14 melanoma) was 20.8 µM, the GI50 (MALME-3M melanoma) was 4.74 µM and the TGI (MALME-3M melanoma) was > 100 µM. The GI50 (MCF7 breast) was 2.81 µM, the TGI (MCF7 breast) was > 100 µM and the GI50 (MDA-MB-231 breast) was 2.35 µM. The TGI (MDA-MB-231 breast) was 7.44 µM, the GI50 (MDA-MB-435) was 2.02 µM and the TGI (MDA-MB-435) was 7.24 µM. The GI50 (MOLT-4 leukemia) was 3.36 µM, the TGI (MOLT-4 leukemia) was > 100 µM and the GI50 (NCI-H226 lung) was 3.32 µM.
